{"source": "patent US6462064B1", "about": "“Apoptosis inducing adamantyl derivatives and their usage as anti-cancer agents, especially for cervical cancers and dysplasias” (Galderma Research & Development S.N.C., priority 1996, dated 2002)", "note": "Entries after “also recorded” stand apart in the source; their conditions may differ.", "data": [{"tested_on": "cancer cells", "test": "List of active compounds: types of cancers and precancers active against", "type": "cell-based", "description": "As discussed, the adamantyl retinoid derivatives according to the invention which induce apoptosis are useful for treating many different types of cancers.", "values": [{"smiles": "COc1ccc(C(=O)Oc2ccc(C(=O)O)c(F)c2)cc1C12CC3CC(CC(C3)C1)C2", "note": "[Compound 20, 4-[3-(1-adamantyl)-4-methoxybenzoyloxy]-2-fluorobenzoic acid]", "Types of Cancers and Precancers Active Against": "lymphoma, skin"}, {"smiles": "COc1ccc(C(=O)Oc2ccc(C(=O)O)cc2F)cc1C12CC3CC(CC(C3)C1)C2", "note": "[Compound 21, 4-hydroxycarbonyl-2-fluorophenyl ester of 3-(1-adamantyl)-4-methoxybenzoic acid]", "Types of Cancers and Precancers Active Against": "leukemia"}, {"smiles": "CCc1ccc(-c2ccc3cc(C(=O)O)ccc3c2)cc1C12CC3CC(CC(C3)C1)C2", "note": "[Compound 22, 6-[3-(1-adamantyl)-4-ethylphenyl]-2-naphthoic acid]", "Types of Cancers and Precancers Active Against": "breast, leukemia, myeloma"}, {"smiles": "O=C(O)c1ccc2cc(-c3ccc(OCCCO)c(C45CC6CC(CC(C6)C4)C5)c3)ccc2c1", "note": "[Compound 23, 6-[3-(1-adamantyl)-4-(3-hydroxypropoxy)phenyl]-2-naphthoic acid]", "Types of Cancers and Precancers Active Against": "breast, leukemia, lymphoma"}, {"smiles": "NC(=O)c1ccc(-c2ccc3cc(C(=O)O)ccc3c2)cc1C12CC3CC(CC(C3)C1)C2", "note": "[Compound 24, 6-[3-(1-adamantyl)-4-aminocarbonylphenyl]-2-naphthoic acid]", "Types of Cancers and Precancers Active Against": "leukemia, lymphoma"}, {"smiles": "O=C(CC(=O)C12CC3CC(CC(C3)C1)C2)Nc1ccc(C(=O)O)cc1", "note": "[Compound 25, N-(4-carboxyphenyl)-3-(1-adamantyl)-3-oxopropionamide]", "Types of Cancers and Precancers Active Against": "lymphoma"}, {"smiles": "COc1ccc(C(O)COc2ccc(C(=O)O)c(O)c2)cc1C12CC3CC(CC(C3)C1)C2", "note": "(stereo not shown) [Compound 26, 2-hydroxy-4-{2-[3-(1-adamantyl)-4-methoxyphenyl]-2-hydroxyethoxy}benzoic acid]", "Types of Cancers and Precancers Active Against": "lymphoma"}, {"smiles": "O=C(O)c1ccc2cc(-c3ccc(OC[C@@H](O)CO)c(C45CC6CC(CC(C6)C4)C5)c3)ccc2c1", "note": "[Compound 27, (S)-6-[3-(1-adamantyl)-4-(2S,3-dihydroxypropoxy)phenyl]-2-naphthoic acid]", "Types of Cancers and Precancers Active Against": "leukemia"}, {"smiles": "COc1cc(C(=O)/C=C/c2ccc(C(=O)O)cc2)ccc1C12CC3CC(CC(C3)C1)C2", "note": "[Compound 28, (E) 4-{3-oxo-3-[3-methoxy-4-(1-adamantyl)phenyl]prop-1-enyl}benzoic acid]", "Types of Cancers and Precancers Active Against": "leukemia"}, {"smiles": "COCCOCOc1ccc(C(=O)/C=C/c2ccc(C(=O)O)cc2)cc1C12CC3CC(CC(C3)C1)C2", "note": "[Compound 29, (E) 4-{3-oxo-3-[4-(2-methoxyethoxymethoxy)-3-(1-adamantyl)phenyl]prop-1-enyl}benzoic acid]", "Types of Cancers and Precancers Active Against": "brain, leukemia, lung,; also recorded: lymphoma, prostate"}, {"smiles": "NC(=O)CCCCCOc1ccc(/C=C/c2ccc(C(=O)O)cc2)cc1C12CC3CC(CC(C3)C1)C2", "note": "[Compound 30, (E) 4-{2-[4-(6-aminocarbonylpentyloxy)-3-(1-adamantyl)phenyl]ethenyl}benzoic acid]", "Types of Cancers and Precancers Active Against": "lymphoma, myeloma"}, {"smiles": "COc1ccc(C(=N)Nc2ccc(C(=O)O)cc2)cc1C12CC3CC(CC(C3)C1)C2", "note": "[Compound 31, 3-(1-adamantyl)-4-methoxy-N-(4-carboxyphenyl)benzamidine]", "Types of Cancers and Precancers Active Against": "leukemia"}, {"smiles": "CCC1OC(=O)C(C)C(OC2CC(C)(OC)C(OC(=O)c3ccc4cc(-c5ccc(OC)c(C67CC8CC(CC(C8)C6)C7)c5)ccc4c3)C(C)O2)C(C)C(OC2OC(C)CC(N(C)C)C2O)C(C)(O)CC(C)C(=O)C(C)C(O)C1(C)O", "note": "(stereo not shown) [Compound 32, 4″-Erythromycin A ester of 6-[3-(1-adamantyl)-4-methoxyphenyl]2-naphthoic acid]", "Types of Cancers and Precancers Active Against": "leukemia, lymphoma"}, {"smiles": "O=C(O)c1ccc(OC(=O)c2ccc(OCC(O)CO)c(C34CC5CC(CC(C5)C3)C4)c2)cc1", "note": "(stereo not shown) [Compound 33, 4-carboxyphenyl ester of 3-(1-adamantyl)-4-(2,3-dihydroxyproproxy)benzoic acid]", "Types of Cancers and Precancers Active Against": "leukemia, skin"}, {"smiles": "O=C(O)c1ccc2cc(-c3ccc(OCC(O)CO)c(C45CC6CC(CC(C6)C4)C5)c3)ccc2c1", "note": "(stereo not shown) [Compound 34, 6-[3-(1-adamantyl)-4-(2,3-dihydroxypropoxy)phenyl]-2-naphthoic acid]", "Types of Cancers and Precancers Active Against": "leukemia, skin"}, {"smiles": "COC(=O)c1ccc(C(=O)Nc2ccc(C(=O)O)cc2)cc1C12CC3CC(CC(C3)C1)C2", "note": "[Compound 35, N-4-carboxyphenyl 3-(1-adamantyl)-4-(methoxycarbonyl)benzamide]", "Types of Cancers and Precancers Active Against": "leukemia, lymphoma, myeloma"}, {"smiles": "O=C(O)c1ccc2cc(-c3cc(O)c(O)c(C45CC6CC(CC(C6)C4)C5)c3)ccc2c1", "note": "[Compound 36, 6-[3-(1-adamantyl)-4,5-dihydroxyphenyl]-2-naphthoic acid]", "Types of Cancers and Precancers Active Against": "brain, head and neck, leukemia,; also recorded: lymphoma, myeloma, pancreatic"}, {"smiles": "CC12CC3CC(C1)CC(c1cc(-c4ccc5cc(C(=O)O)ccc5c4)cc4c1OCO4)(C3)C2", "note": "[Compound 37, 6-[3-(3-methyl-1-adamantyl)-4,5-methylenedioxyphenyl]-2-naphthoic acid]", "Types of Cancers and Precancers Active Against": "kidney, leukemia, lung,; also recorded: lymphoma, skin"}, {"smiles": "O=C(O)c1ccc2cc(-c3cc4c(c(C56CC7CC(CC(C7)O5)C6)c3)OCO4)ccc2c1", "note": "[Compound 38, 6-[3-(2-oxa-1-adamantyl)-4,5-methylenedioxyphenyl]-2-naphthoic acid]", "Types of Cancers and Precancers Active Against": "leukemia, skin"}, {"smiles": "COc1ccc(-c2ccc3cc(C(=O)O)ccc3c2)cc1C12CC3CC(CC(C3)O1)C2", "note": "[Compound 39, 6-[3-(2-oxa-1-adamantyl)-4-methoxyphenyl]-2-naphthoic acid]", "Types of Cancers and Precancers Active Against": "kidney, lymphoma, skin, liver"}, {"smiles": "COc1ccc(-c2ccc3cc(C(=O)O)ccc3c2)cc1C12CC3CC(CC(C)(C3)O1)C2", "note": "[Compound 40, 6-[3-(2-oxa-3-methyl-1-adamantyl)-4-methoxyphenyl]-2-naphthoic acid]", "Types of Cancers and Precancers Active Against": "bladder, breast, kidney,; also recorded: leukemia, lung, lymphoma,; also recorded: ovarian, prostate, skin"}, {"smiles": "COc1ccc(-c2ccc3cc(C(=O)O)ccc3c2)cc1C12CC3CC(CC(C)(C3)C1)C2", "note": "[Compound 41, 6-[3-(3-methyl-1-adamantyl)-4-methoxyphenyl]-2-naphthoic acid]", "Types of Cancers and Precancers Active Against": "skin"}, {"smiles": "COc1ccc(-c2ccc3cc(C(=O)O)ccc3c2)cc1C12CC3CC(C)(CC(C)(C3)C1)C2", "note": "[Compound 42, 6-[3-(3,5-dimethyl-1-adamantyl)-4-methoxyphenyl]-2-naphthoic acid]", "Types of Cancers and Precancers Active Against": "skin"}, {"smiles": "CC12CC3CC(C)(C1)CC(c1cc(-c4ccc5cc(C(=O)O)ccc5c4)cc4c1OCO4)(C3)C2", "note": "[Compound 43, 6-[3-(3,5-dimethyl-1-adamantyl)-4,5-methylenedioxyphenyl]-2-naphthoic acid]", "Types of Cancers and Precancers Active Against": "prostate, breast, neuroblastoma"}, {"smiles": "COc1ccc(-c2ccc3cc(C(=O)N4CCCNCC4)ccc3c2)cc1C12CC3CC(CC(C3)C1)C2", "note": "[Compound 44, N-{6-[3-(1-adamantyl)-4-methoxyphenyl]-2-naphthalenecarboxoyl}homopiperazide]", "Types of Cancers and Precancers Active Against": "bladder, kidney, epidermal,; also recorded: leukemia lung, neuroblastoma,; also recorded: hepatoma, cervix, skin"}]}]}
